Measurements as given in publication PMC5522529, “Mechanisms of Paradoxical Activation of AMPK by the Kinase Inhibitors SU6656 and Sorafenib” (Cell Chemical Biology, 2017).

How the values were obtained:
LKB1 versus AMPK = tested on: LKB1 versus AMPK; design: method as in MRC Kinase Inhibitor Database; details: ref MRC Kinase Inhibitor Database; cited from earlier work
Erk1/Erk2 = Erk1/Erk2 phosphorylation in HEK293 cells (western blot); assay type: cell-based, human; details: SU6656 100 μM, PP2 100 nM
LKB1 = molecular target: T1, LKB1 (Homo sapiens, UniProt Q15831); assay: LKB1 assay using LKBtide peptide substrate; assay type: biochemical; details: alternative peptide substrate (LKBtide)
T1 construct: made in house; host or cells: Sf9 cells
Procedure: We next used unphosphorylated α2-KD and tested the effect of SU6656 on its activation and phosphorylation by LKB1. […] There was no effect of SU6656 when LKB1 was assayed using an alternative peptide substrate (Figure S3), confirming that it acts by binding to AMPK rather than to LKB1. The half-maximal effect of SU6656 on α2-KD activation was at 0.20 ± 0.02 μM, close to the IC50 for inhibition of catalytic activity (0.22 ± 0.02 μM).
Endogenous AMPK was immunoprecipitated using the specified antibodies (for total AMPK, an equal mixture of anti-α1 and –α2 antibodies) and assayed at 200 μM ATP ([Hardie et al., 2000], [Towler et al., 2008]) using the AMARA peptide ([Dale et al., 1995]) as substrate, except for assays of allosteric activation by AMP (Figure 5A) where the SAMS peptide was used as substrate with 2 mM ATP ([Gowans et al., 2013]). The AMPK-related kinases SIK1, SIK2, SIK3, SNARK, MARK2/3 and MARK4 were immunoprecipitated and assayed as previously described ([Lizcano et al., 2004]) in lysates of Hela cells stably expressing LKB1 ([Fogarty et al., 2010]). LKB1 was assayed using the LKBtide peptide as substrate ([Sakamoto et al., 2004]).
LKB1 was assayed using the LKBtide peptide as substrate as
described in the Star Methods section.

AMPK = AMPK activity in HeLa cells stably expressing LKB1; assay type: cell-based, human; details: HeLa cells expressing LKB1, 100 μM, 1 hr
Procedure: Figure 1 SU6656 Activates AMPK but Not AMPK-Related Kinases (A) HEK293 cells were incubated with the indicated concentrations of SU6656 or berberine (300 μM) for 1 hr; total AMPK activity was assayed in immunoprecipitates (top; mean ± SEM, n = 4), and phosphorylation of AMPK (Thr172), ACC (Ser80), and Raptor (Ser792) analyzed by western blotting (bottom; n = 2). (B) HEK293 cells were incubated with 100 μM SU6656 (1 hr), AMPK complexes containing α1, α2, β1, and β2 immunoprecipitated using isoform-specific antibodies, and AMPK activity measured (mean ± SEM, n = 4). (C) HeLa cells stably expressing LKB1 ([Fogarty et al., 2010]) were incubated with 100 μM SU6656 for 1 hr, AMPK or individual ARKs immunoprecipitated, and kinase assays carried out (antibodies that distinguish MARK2/MARK3 were not available, so they were assayed together). Results are means ± SEM (n = 2). In all panels, asterisks indicate significant differences from controls without SU6656. *p < 0.05, **p < 0.01, ****p < 0.0001. […]

[1] = molecular target: T2, human AMPK-α2 Y436F mutant (Homo sapiens, UniProt P54646, Y436F); assay: AMPK activity of FLAG-tagged Y436F AMPK-α2 expressed in HEK293 cells; assay type: cell-based; details: SU6656 100 μM, phenformin 10 mM, A23187 10 μM, 1 hr
T2 construct: expressed in transfected cells; host or cells: HEK293 (transient transfection)
Procedure: Top: AMPK activity (mean ± SEM, n = 4); bottom: western blots showing phosphorylation of Thr172 on AMPK, and of ERK1/2, in cells treated with DMSO (control), SU6656 (100 μM), or PP2 (100 nM) (n = 2). (B) As (A), but in SYF cells. (C) HeLa cells were transfected with DNAs encoding GFP alone, or GFP fused to WT, Y261F/Y365F (FF), or Y36F/Y261F/Y365F (FFF) mutants of LKB1; cells were treated with increasing concentrations of SU6656 for 1 hr and AMPK activity determined (mean ± SEM, n = 4). See also Figure S1. (D) HEK293 cells were transfected with DNAs encoding FLAG-tagged AMPK-α2 with or without a Y436F mutation. Cells were incubated with DMSO (control), 100 μM SU6656, 10 mM phenformin, or 10 μM A23187 for 1 hr; AMPK complexes were immunoprecipitated using anti-FLAG antibody and assayed. The top panels show kinase activities (mean ± SD, n = 3); the bottom panels show blots from the same experiment (n = 2). In all panels, asterisks indicate significant differences from DMSO controls; in (D), there were no significant differences between the WT and Y463F mutant. **p < 0.01, ****p < 0.0001.

Erk1/2 = Erk1/2 phosphorylation in SYF cells; assay type: cell-based, mouse; details: SU6656 100 μM, PP2 100 nM
Raptor = Raptor phosphorylation in HEK293 cells (western blot); assay type: cell-based, human; details: 1 hr
Procedure: Figure 1 SU6656 Activates AMPK but Not AMPK-Related Kinases (A) HEK293 cells were incubated with the indicated concentrations of SU6656 or berberine (300 μM) for 1 hr; total AMPK activity was assayed in immunoprecipitates (top; mean ± SEM, n = 4), and phosphorylation of AMPK (Thr172), ACC (Ser80), and Raptor (Ser792) analyzed by western blotting (bottom; n = 2). (B) HEK293 cells were incubated with 100 μM SU6656 (1 hr), AMPK complexes containing α1, α2, β1, and β2 immunoprecipitated using isoform-specific antibodies, and AMPK activity measured (mean ± SEM, n = 4). (C) HeLa cells stably expressing LKB1 ([Fogarty et al., 2010]) were incubated with 100 μM SU6656 for 1 hr, AMPK or individual ARKs immunoprecipitated, and kinase assays carried out (antibodies that distinguish MARK2/MARK3 were not available, so they were assayed together). Results are means ± SEM (n = 2). In all panels, asterisks indicate significant differences from controls without SU6656. *p < 0.05, **p < 0.01, ****p < 0.0001.
SDS-PAGE was performed using precast Bis-Tris 4–12% gradient polyacrylamide gels in the MOPS buffer system (ThermoFisher Scientific). Proteins were transferred to nitrocellulose membranes using the iBlot 2 system (ThermoFisher Scientific). […] Protein concentrations were determined by Coomassie Blue binding with bovine serum albumin as standard ([Bradford, 1976]). […]

T2 sequence (P54646 whole entry Y436F): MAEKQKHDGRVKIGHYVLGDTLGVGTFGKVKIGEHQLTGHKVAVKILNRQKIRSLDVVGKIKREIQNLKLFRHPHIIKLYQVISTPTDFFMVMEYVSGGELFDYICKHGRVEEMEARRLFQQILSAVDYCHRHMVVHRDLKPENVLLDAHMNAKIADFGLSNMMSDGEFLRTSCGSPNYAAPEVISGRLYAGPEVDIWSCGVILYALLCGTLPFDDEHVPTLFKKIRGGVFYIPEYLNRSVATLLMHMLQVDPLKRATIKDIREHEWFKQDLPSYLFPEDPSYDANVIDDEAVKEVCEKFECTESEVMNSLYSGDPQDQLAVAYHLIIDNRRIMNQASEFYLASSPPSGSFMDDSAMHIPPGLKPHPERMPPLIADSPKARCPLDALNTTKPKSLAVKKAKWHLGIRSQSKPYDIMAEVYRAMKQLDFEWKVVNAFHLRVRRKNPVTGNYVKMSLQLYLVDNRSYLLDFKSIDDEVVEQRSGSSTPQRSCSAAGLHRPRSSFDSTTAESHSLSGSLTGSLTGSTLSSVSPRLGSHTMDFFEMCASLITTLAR
T2 sequence (P54619 whole entry partner): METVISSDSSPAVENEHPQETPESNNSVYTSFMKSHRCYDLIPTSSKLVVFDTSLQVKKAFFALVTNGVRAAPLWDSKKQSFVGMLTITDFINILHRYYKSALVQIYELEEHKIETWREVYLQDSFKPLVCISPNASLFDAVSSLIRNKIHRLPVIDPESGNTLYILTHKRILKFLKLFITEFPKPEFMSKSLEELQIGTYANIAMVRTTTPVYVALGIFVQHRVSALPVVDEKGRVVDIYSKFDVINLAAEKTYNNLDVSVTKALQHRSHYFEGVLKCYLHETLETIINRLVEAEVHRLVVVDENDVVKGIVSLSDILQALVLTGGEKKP
T1 sequence (Q15831 whole entry): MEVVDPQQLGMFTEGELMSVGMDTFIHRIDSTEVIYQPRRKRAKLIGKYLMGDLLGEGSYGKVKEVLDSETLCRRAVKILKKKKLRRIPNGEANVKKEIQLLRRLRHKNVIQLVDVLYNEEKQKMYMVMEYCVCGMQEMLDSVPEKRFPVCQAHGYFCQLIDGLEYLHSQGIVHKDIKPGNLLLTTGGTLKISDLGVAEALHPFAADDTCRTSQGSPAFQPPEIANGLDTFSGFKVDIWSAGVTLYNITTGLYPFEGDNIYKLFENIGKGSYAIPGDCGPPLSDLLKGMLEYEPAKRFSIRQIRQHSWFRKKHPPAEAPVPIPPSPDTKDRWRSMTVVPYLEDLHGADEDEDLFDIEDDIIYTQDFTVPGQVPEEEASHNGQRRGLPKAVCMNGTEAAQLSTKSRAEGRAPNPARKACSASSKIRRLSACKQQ
T1 sequence (Q7RTN6 whole entry partner): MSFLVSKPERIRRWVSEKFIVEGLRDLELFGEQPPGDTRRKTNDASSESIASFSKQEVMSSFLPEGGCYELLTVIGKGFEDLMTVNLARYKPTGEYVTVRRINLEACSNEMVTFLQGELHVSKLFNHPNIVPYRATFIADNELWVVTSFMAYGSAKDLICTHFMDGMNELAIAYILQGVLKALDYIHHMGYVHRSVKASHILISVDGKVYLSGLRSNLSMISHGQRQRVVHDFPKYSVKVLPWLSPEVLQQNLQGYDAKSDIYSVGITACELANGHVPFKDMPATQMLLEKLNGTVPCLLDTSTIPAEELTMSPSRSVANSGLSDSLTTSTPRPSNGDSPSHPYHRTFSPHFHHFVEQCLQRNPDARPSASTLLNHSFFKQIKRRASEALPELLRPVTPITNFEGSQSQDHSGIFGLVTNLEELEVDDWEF
T1 sequence (Q9Y376 whole entry partner): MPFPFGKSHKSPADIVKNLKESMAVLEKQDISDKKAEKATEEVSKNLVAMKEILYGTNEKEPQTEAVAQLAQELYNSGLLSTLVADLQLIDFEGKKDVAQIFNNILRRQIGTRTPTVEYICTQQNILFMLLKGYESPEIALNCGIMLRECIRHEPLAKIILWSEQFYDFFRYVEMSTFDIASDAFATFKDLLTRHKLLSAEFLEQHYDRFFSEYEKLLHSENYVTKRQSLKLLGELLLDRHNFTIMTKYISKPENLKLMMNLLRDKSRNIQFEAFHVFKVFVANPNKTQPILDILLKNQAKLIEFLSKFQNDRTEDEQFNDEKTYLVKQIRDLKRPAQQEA

CN(C)S(=O)(=O)c1ccc2c(c1)/C(=C/c1cc3c([nH]1)CCCC3)C(=O)N2 [SU6656]
potency of LKB1 inhibition relative to AMPK inhibition (LKB1 versus AMPK): inhibition of LKB1 was less potent than that of AMPK
Erk1/Erk2 phosphorylation (Erk1/Erk2): reduced phosphorylation of Erk1/Erk2
effect on LKB1 activity (LKB1): no effect
AMPK activity (AMPK): robustly activated AMPK
AMPK activation response with Y436F mutation [1]: unaffected by the Y436F mutation
Erk1/2 phosphorylation (Erk1/2): inhibited Erk1/2 phosphorylation

COc1ccc2cc3[n+](cc2c1OC)CCc1cc2c(cc1-3)OCO2 [berberine]
Raptor phosphorylation (Raptor): did promote Raptor phosphorylation
